Measured values from PubChem BioAssay (NCI).
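Exposure lasted 48 hours, with cells grown in 96-well plates and compounds tested at five concentrations. Definition used: TGI = concentration required for complete inhibition of growth.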

Tests used:
Experiment in all cases: inhibition of tumour cell growth, NCI panel, 48 h
A549 NSCLC = system: A549 NSCLC
ACHN renal = system: ACHN renal
HCC-2998 colon = system: HCC-2998 colon
HOP-62 NSCLC = system: HOP-62 NSCLC
LOX IMVI melanoma = system: LOX IMVI melanoma
NCI-H460 lung = system: NCI-H460 lung
SF-268 CNS = system: SF-268 CNS
SF-295 CNS = system: SF-295 CNS
SK-MEL-5 melanoma = system: SK-MEL-5 melanoma
SR leukemia = system: SR leukemia

Row | SMILES | TGI (A549 NSCLC) | TGI (ACHN renal) | TGI (HCC-2998 colon) | TGI (HOP-62 NSCLC) | TGI (LOX IMVI melanoma) | TGI (NCI-H460 lung) | TGI (SF-268 CNS) | TGI (SF-295 CNS) | TGI (SK-MEL-5 melanoma) | TGI (SR leukemia)
1 | O=C(O)c1cc2c(cc1CC(Cc1ccc3c(c1)CCC3)C(=O)O)CCC2 (stereo not given) | > 100 µM | > 100 µM | > 100 µM | > 100 µM | > 100 µM | > 100 µM | > 100 µM | > 100 µM | > 100 µM | > 100 µM
2 | CN(C)/N=N/c1nc2c(c(=O)n(C)c(=O)n2C)n1C | > 100 µM | > 100 µM | > 100 µM | > 100 µM | > 100 µM | > 100 µM | > 100 µM | > 100 µM | > 100 µM | > 100 µM
3 | COc1cccc2c(N)c3cccc(C(=O)NCCN(C)C)c3nc12 | 2.16 µM | 2.03 µM | 0.971 µM | 0.833 µM | 0.472 µM | 1.72 µM | 0.51 µM | 2.01 µM | 2.08 µM | 1.12 µM
4 | OCCCCCNc1c2ccccc2nc2ccccc12 | > 29.7 µM | 1.42 µM | 3.36 µM | 6.68 µM | 4.7 µM | 3.5 µM | 11.4 µM | 10.5 µM | 3.95 µM | > 23.2 µM
5 | CCCc1cc(=O)c2c(C)c3[nH]c4ccc(Cl)cc4c3c(C)c2[nH]1 | 4.81 µM | 3.71 µM | 3.02 µM | 6.15 µM | 3.33 µM | 3.79 µM | 24.1 µM | 3.96 µM | 21.4 µM | 4.93 µM
6 | CC(CN1c2ccccc2Sc2ccccc21)N(C)C (stereo not given) | 35.7 µM | 30.7 µM | 37.5 µM | 28.5 µM | 35.9 µM | 36 µM | 33.5 µM | 28.9 µM | 35.6 µM | 40.9 µM
7 | C[N+]1=C2[B-](C(C)(C)C)=[N+](C(C)(C)C)[B-]2(C(C)(C)C)[N+](C)=C2[B-](C(C)(C)C)=[N+](C(C)(C)C)[B-]21C(C)(C)C (stereo not given) | > 100 µM | > 100 µM | > 100 µM | > 100 µM | > 100 µM | > 100 µM | > 100 µM | > 100 µM | > 100 µM | > 100 µM
